Reference: patent US10653658B2, “Biofilm inhibiting compositions enhancing weight gain in livestock” (Akeso Biomedical, Inc., priority 2015, dated 2020)

Tested on: Campylobacter
Assay: Campylobacter cfu/g of caeca at day 42 (Example 10)
Type: in vivo
Conditions: in feed
Experimental: A study was performed to evaluate growth promotion and reduction of Campylobacter carriage using FeTyr in Ross 308 male broilers with 7 treatment groups. Each treatment group comprised eight replicates of 10 birds per pen (80 birds/treatment group), with 2 control groups and […]. All the test groups and both of the control groups were exposed at day 20 of the trial to dirty litter, which tested positive for Campylobacter. This method was used to provide a more natural method to Campylobacter challenge the birds. Thus there were two positive controls where each treatment group was challenged with Campylobacter, and five treatment groups that were all challenged with Campylobacter. The total number of birds used in the 7 treatment groups was 560.
At day 20, litter, which was naturally Campylobacter-contaminated, was tested to confirm the presence of Campylobacter, and then added (approximately 2 kg/pen) to the litter in all pens. At day 42, caecal samples were taken and tested for Campylobacter, E. coli and Salmonella enumeration.

O=C([O-])C1(O)CC(O)C(O)C(O)C1.O=C([O-])C1(O)CC(O)C(O)C(O)C1.O=C([O-])C1(O)CC(O)C(O)C(O)C1.[Fe+3] (stereo not shown) [FeQ, Ferric Quinate]
Campylobacter cfu/g of caeca at day 42 (FIG. 14): positive effect on reducing Campylobacter infection
